These results are taken from US8846670B2, “1,2,3,4-tetrahydro-pyrimido(1,2-a)pyrimidin-6-one derivatives, preparation thereof, and pharmaceutical use thereof” (priority 2009, dated 2014).

For orientation: inhibition means the share of the control response that was lost under treatment. The term IC50 denotes the concentration at which inhibition is half-maximal.

Molecules are shown by their SMILES.

Common to all, as to format: cell-based
In assay [1] the test system is P. falciparum (highly chloroquine-resistant strain Fcm29-Cameroon). Put plainly: Antimalarial activity test (radioactive micromethod of Desjardins). Conditions: Plasmodium falciparum, Erythrocyte, infected human erythrocytes, 48 h, tritiated hypoxanthine incorporation. The method, then: Antimalarial Activity Test
The P. falciparum strains are cultured in solutions of RPM! […] For each assay, the parasites are incubated with selected concentrations of drugs for 48 h at 37° C. in a humid atmosphere and at 5% CO2. Artemisinin, artesunate and also chloroquine diphosphate are used as reference molecules. The first dilution of the drug is prepared at 1 mg/ml in dimethyl sulphoxide. The range of successive daughter solution dilutions is also prepared in dimethyl sulphoxide. […] These dilutions are then added to the parasites in culture in the microplates. […] The growth of the parasites is measured by incorporation of tritiated hypoxanthine (added 24 h after the beginning of the exposure to the drug) compared with the incorporation in the absence of drug.

Assay [2] relates to AKT protein phosphorylated on serine 473 (P-AKT-S473) in PC3 human prostate carcinoma line. Put plainly: Study of pAKT expression in PC3 human prostate carcinoma cells measured by the MSD Multi-spot Biomarker Detection technique (Test B). Conditions: MSD sandwich immunoassay, 1 to 2 h incubation, absolute IC50, mean of 2 experiments. The method, then:
The inhibitory activity of the molecules on AKT phosphorylation is measured either by western blotting using the technique described below, or by the MSD Multi-spot Biomarker detection technique from Meso Scale Discovery also described below.
Study of pAKT Expression in PC3Human Prostate Carcinoma Cells Measured by the MSD Multi-Spot Biomarker Detection Technique from Meso Scale Discovery (Test B):
The primary antibody specific for P-AKT-S473 (Kit #K151CAD) is coated onto an electrode in each well of the 96-well plates of the MSD kit: after the addition of a protein lysate to each well, the signal is visualised by adding a secondary detection antibody labelled with an electrochemiluminescent compound. The procedure followed is that described in the kit.
On day 2, the cells are incubated in the presence or absence of the test products for 1 to 2 h at 37° C. in the presence of 5% of CO2. The molecules, diluted in dimethyl sulphoxide (DMSO Sigma #D2650), are added from a 20-times concentrated stock solution, the final percentage of DMSO being 0.1%.
After this incubation, the cells are lysed for the preparation of the proteins. […] At this stage, the plates containing the lysates can be frozen at −20° C. or at −80° C.
The wells of the 96-well plates of the MSD kit are saturated for 1 h at ambient temperature with the blocking solution of the MSD kit. Four washes are carried out with 150 μl of Tris Wash Buffer of the MSD kit. The lysates previously prepared are transferred into the 96-well multi-spot plates of the MSD kit and incubated for 1 h at ambient temperature, with shaking. Four washes are carried out with 150 μl of Tris Wash Buffer of the MSD kit. 25 μl of the MSD sulfo-tag detection antibody solution are added to the wells and incubated for 1 h at ambient temperature, with shaking. Four washes are carried out with 150 μl of Tris Wash Buffer of the MSD kit. 150 μl of Read Buffer of the MSD kit are added to the wells and the plates are read immediately on the S12400 instrument from Meso Scale Discovery.
The instrument measures a signal for each well. Wells without cells and containing the lysis buffer serve to determine the background noise that will be subtracted from all the measurements (min). The wells containing cells in the absence of product and in the presence of 0.1% DMSO are considered to be the 100% signal (max). The percentage inhibition is calculated for each concentration of test product according to the following formula: (1−((test−min)/(max−min)))×100.
2 independent experiments make it possible to calculate the mean of the IC50 values.

In assay [3] the test system is translocation of the LC3 protein in Hela GFP-LC3 cells. The experiment in a line: Study of the translocation of the LC3 protein in Hela human cells, measured by image analysis cytometry (Test C, autophagy). Conditions: 2 h, Hela GFP-LC3 cells with LC3 granulations, EBSS + 10 μM hydroxychloroquine, absolute IC50. The method, then:
The inhibitory activity of the molecules on autophagy is measured by the translocation of the LC3 protein from the cytoplasm to the autophagosomes. For this, Hela cells were transfected with a vector encoding the chimeric protein GFP-LC3. A Hela clone stably expressing the GFP-LC3 protein was selected.
Study of the Translocation of the LC3 Protein in Hela Human Cells, Measured by Image Analysis Cytometry (Test C):
On day 2, the cells are washed twice with EBSS (Sigma #E3024). The cells are then incubated in EBSS, 10 μM of hydroxychloroquine and test products for 2 h at 37° C. in the presence of 5% CO2. The molecules are diluted in dimethyl sulphoxide (DMSO Sigma #D2650), the final DMSO percentage being 0.1%.
After this incubation, the cells are fixed with 4% paraformaldehyde (Sigma #HT501128 4 L) for 10 min. […] The 96-well plates are then read with the iCyte image analysis cytometer (Compucyte).
Two independent experiments make it possible to calculate the mean of the IC50 values.

The mark [4] stands for this setting: Homo sapiens, PC-3, P-AKT-S473 in PC3 cells.

In the case of `COc1cc(Cl)ccc1[C@H](O)CN1c2nc(N3CCOCC3)cc(=O)n2CC[C@H]1C(F)(F)F` [Example 53, 9-[(S)-2-(4-Chloro-2-methoxyphenyl)-2-hydroxyethyl]-2-morpholin-4-yl-8-(S)-trifluoromethyl-6,7,8,9-tetrahydro-pyrimido[1,2-a]pyrimidin-4-one], in assay [1], the inhibition at 0.1 µM amounted to 75% and the inhibition at 1 µM turned out to be 99%.
`O=c1cc(N2CCOCC2)nc2n1CC[C@@H](C(F)(F)F)N2CC(O)Cc1ccccc1` (stereo partly drawn) [Example 55, 9-(2-Hydroxy-3-phenylpropyl)-2-morpholin-4-yl-8-(S)-trifluoromethyl-6,7,8,9-tetrahydropyrimido[1,2-a]pyrimidin-4-one]: in assay [1], the inhibition at 0.1 µM amounted to 81% and the inhibition at 1 µM came out at 93%.
Regarding `COc1ccccc1[C@H](O)CN1c2nc(N3CCOCC3)cc(=O)n2CC[C@H]1C(F)(F)F` [Example 51, 9-[(S)-2-Hydroxy-2-(2-methoxyphenyl)ethyl]-2-morpholin-4-yl-8-(S)-trifluoromethyl-6,7,8,9-tetrahydropyrimido[1,2-a]pyrimidin-4-one], in assay [1], the inhibition at 0.1 µM turned out to be 75% and the inhibition at 1 µM worked out at 99%.
In the case of `O=c1cc(N2CCOCC2)nc2n1CC[C@@H](C(F)(F)F)N2Cc1ccccc1Cl` [Example 22, (8S)-9-(2-chlorobenzyl)-2-(morpholin-4-yl)-8-(trifluoro-methyl)-6,7,8,9-tetrahydro-4H-pyrimido[1,2-a]pyrimidin-4-one], the IC50 was 23 nM in assay [2] (setting [4]) and 785 nM in assay [3] (Homo sapiens, HeLa).
In the case of `O=c1cc(N2CCOCC2)nc2n1CC[C@@H](C(F)(F)F)N2CCc1cccc(F)c1` [Example 40, (8S)-9-[2-(3-fluorophenyl)ethyl]-2-(morpholin-4-yl)-8-(trifluoromethyl)-6,7,8,9-tetrahydro-4 H-pyrimido[1,2-a]pyrimidin-4-one], the half-inhibitory concentration (IC50) in assay [2] (setting [4]) is 3 nM; in assay [3] (Homo sapiens, HeLa) it was 82 nM.
Regarding `O=c1cc(N2CCOCC2)nc2n1CC[C@@H](C(F)(F)F)N2c1cccc(F)c1` [Example 14, (8S)-9-(3-fluorophenyl)-2-(morpholin-4-yl)-8-(trifluoromethyl)-6,7,8,9-tetrahydro-4H-pyrimido[1,2-a]pyrimidin-4-one], the IC50 in assay [2] (setting [4]) came out at 15 nM; in assay [3] (Homo sapiens, HeLa), 337 nM.
On to `CC(c1ccccc1F)N1c2nc(N3CCOCC3)cc(=O)n2CC[C@H]1C(F)(F)F` (single isomer, unassigned) [Example 39, (8S)-9-[(1R or 1S)-1-(2-fluorophenyl)ethyl]-2-(morpholin-4-yl)-8-(trifluoromethyl)-6,7,8,9-tetrahydro-4 H-pyrimido[1,2-a]pyrimidin-4-one], for which the concentration for half-maximal inhibition (IC50) was 5 nM in assay [2] (P-AKT-S473 in PC3 cells) and 237 nM in assay [3].
On to `Cc1cccc(N2c3nc(N4CCOCC4)cc(=O)n3CC[C@H]2C(F)(F)F)c1` [Example 35, (8S)-9-(3-methylphenyl)-2-(morpholin-4-yl)-8-(trifluoro-methyl)-6,7,8,9-tetrahydro-4H-pyrimido[1,2-a]pyrimidin-4-one], for which the half-maximal inhibitory concentration (IC50) was 20 nM in assay [2] (setting [4]) and 650 nM in assay [3] (Homo sapiens, HeLa).
For the compound `COc1cccc(CCN2c3nc(N4CCOCC4)cc(=O)n3CC[C@H]2C(F)(F)F)c1` [Example 25], the IC50 came out at 7 nM in assay [2] (setting [4]) and 38 nM in assay [3] (Homo sapiens, HeLa).
For `COc1cccc(CN2c3nc(N4CCOCC4)cc(=O)n3CC[C@H]2C(F)(F)F)c1` [Example 26, (8S)-9-(3-methoxybenzyl)-2-(morpholin-4-yl)-8-(trifluoromethyl)-6,7,8,9-tetrahydro-4H-pyrimido[1,2-a]pyrimidin-4-one], the half-maximal inhibitory concentration (IC50) in assay [2] (setting [4]) came out at 18 nM; in assay [3] (Homo sapiens, HeLa), 270 nM.
Turning to `COc1ccc([C@H](O)CN2c3nc(N4CCOCC4)cc(=O)n3CC[C@H]2C(F)(F)F)cc1` [Example 7, (8S)-9-[(2S)-2-hydroxy-2-(4-methoxyphenyl)ethyl]-2-(morpholin-4-yl)-8-(trifluoromethyl)-6,7,8,9-tetrahydro-4H-pyrimido[1,2-a]pyrimidin-4-one], the concentration for half-maximal inhibition (IC50) in assay [2] (setting [4]) stood at 1 nM; in assay [3] (Homo sapiens, HeLa), 5 nM.
